# Results taken from ChEMBL document CHEMBL1201862, “PubChem BioAssay data set” (2004).
#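 Assay format: 96-well plates, 48-hour exposure. GI50 = concentration required for 50% inhibition of growth.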 Active and inactive are the calls of the source. No stated cut-off is given here; in the data, active = GI50 up to about 1.1 µM and inactive = higher.
# How the values were obtained:
# Assay in all cases: growth of human tumour cells (NCI), 48 h
# [1] = test system: T47D
# [2] = test system: SF-539
# [3] = test system: NCI-H226
# [4] = test system: A498
# [5] = test system: HCT-116
# [6] = test system: KM12
# [7] = test system: HCT-15
# [8] = test system: EKVX
# [9] = test system: NCI-H522
# [10] = test system: MCF7
# [11] = test system: IGROV-1
# [12] = test system: MOLT-4
# [13] = test system: SK-MEL-28
# [14] = test system: ACHN
# [15] = test system: HOP-92
# [16] = test system: PC-3
# [17] = test system: DU-145
# [18] = test system: SF-268
# [19] = test system: OVCAR-8
# [20] = test system: UACC-257
# [21] = test system: CAKI-1
# [22] = test system: RXF 393
# [23] = test system: A549
# [24] = test system: MDA-MB-435
# [25] = test system: SNB-19
# [26] = test system: NCI-H460
# [27] = test system: SN12C
# [28] = test system: Malme-3M
# [29] = test system: HT-29
# [30] = test system: U-251
# [31] = test system: BT-549
# [32] = test system: HOP-62
# [33] = test system: OVCAR-3
# [34] = test system: K562
# [35] = test system: NCI/ADR-RES
# [36] = test system: OVCAR-5
# [37] = test system: SW-620
# [38] = test system: SF-295
# [39] = test system: HL-60
# [40] = test system: UO-31
# [41] = test system: SK-MEL-5
# [42] = test system: M14
# [43] = test system: CCRF-CEM
# [44] = test system: MDA-MB-231
# [45] = test system: MDA-N
# [46] = test system: SR
# [47] = test system: TK-10
# [48] = test system: NCI-H23
# [49] = test system: SNB-75
# [50] = test system: LOX IMVI
# [51] = test system: 786-0
# [52] = test system: SK-MEL-2
# [53] = test system: Hs-578T
# [54] = test system: SK-OV-3
# [55] = test system: UACC-62
# [56] = test system: RPMI-8226
# [57] = test system: OVCAR-4
# [58] = test system: HCC 2998
# [59] = test system: COLO 205
structure (smiles),measurement,setting,value
CCN1CCCCCCCCCC(=N/O)/C(=N\O)C1,GI50,[1],> 100 µM (inactive)
same,GI50,[2],> 100 µM (inactive)
same,GI50,[3],> 100 µM (inactive)
same,GI50,[4],> 100 µM (inactive)
same,GI50,[5],> 100 µM (inactive)
same,GI50,[6],> 100 µM (inactive)
same,GI50,[7],> 100 µM
same,GI50,[8],> 100 µM (inactive)
same,GI50,[9],> 100 µM (inactive)
same,GI50,[10],> 100 µM (inactive)
same,GI50,[11],> 100 µM (inactive)
same,GI50,[12],> 100 µM (inactive)
same,GI50,[13],> 100 µM (inactive)
same,GI50,[14],> 100 µM (inactive)
same,GI50,[15],> 100 µM (inactive)
same,GI50,[16],> 100 µM (inactive)
same,GI50,[17],> 100 µM (inactive)
same,GI50,[18],> 100 µM (inactive)
same,GI50,[19],> 100 µM (inactive)
same,GI50,[20],> 100 µM (inactive)
same,GI50,[21],> 100 µM (inactive)
same,GI50,[22],> 100 µM (inactive)
same,GI50,[23],> 100 µM (inactive)
same,GI50,[24],> 100 µM (inactive)
same,GI50,[25],> 100 µM (inactive)
same,GI50,[26],> 100 µM (inactive)
same,GI50,[27],> 100 µM (inactive)
same,GI50,[28],> 100 µM (inactive)
same,GI50,[29],> 100 µM (inactive)
same,GI50,[30],> 100 µM (inactive)
same,GI50,[31],> 100 µM (inactive)
same,GI50,[32],> 100 µM (inactive)
same,GI50,[33],> 100 µM (inactive)
same,GI50,[34],> 100 µM (inactive)
same,GI50,[35],> 100 µM (inactive)
same,GI50,[36],> 100 µM (inactive)
same,GI50,[37],> 100 µM (inactive)
same,GI50,[38],> 100 µM (inactive)
same,GI50,[39],> 100 µM (inactive)
same,GI50,[40],> 100 µM (inactive)
same,GI50,[41],> 100 µM (inactive)
same,GI50,[42],> 100 µM (inactive)
same,GI50,[43],> 100 µM (inactive)
same,GI50,[44],> 100 µM (inactive)
same,GI50,[45],> 100 µM (inactive)
same,GI50,[46],> 100 µM (inactive)
same,GI50,[47],> 100 µM (inactive)
same,GI50,[48],> 100 µM (inactive)
same,GI50,[49],> 100 µM (inactive)
same,GI50,[50],> 100 µM (inactive)
same,GI50,[51],> 100 µM (inactive)
NC(=O)c1cc2ccc(O)cc2o/c1=N/NC(=O)c1ccccc1,GI50,[1],15.6 µM (inactive)
same,GI50,[52],28.2 µM (inactive)
same,GI50,[53],81.3 µM (inactive)
same,GI50,[3],39.4 µM (inactive)
same,GI50,[4],40.5 µM (inactive)
same,GI50,[5],66.2 µM (inactive)
same,GI50,[6],77.1 µM (inactive)
same,GI50,[7],79.3 µM
same,GI50,[8],> 100 µM (inactive)
same,GI50,[54],61.2 µM (inactive)
same,GI50,[9],42.3 µM (inactive)
same,GI50,[10],> 100 µM (inactive)
same,GI50,[11],46.7 µM (inactive)
same,GI50,[12],35.1 µM (inactive)
same,GI50,[13],76.4 µM (inactive)
same,GI50,[14],58.1 µM (inactive)
same,GI50,[15],> 100 µM (inactive)
same,GI50,[16],83.2 µM (inactive)
same,GI50,[18],> 100 µM (inactive)
same,GI50,[19],67.8 µM (inactive)
same,GI50,[20],> 100 µM (inactive)
same,GI50,[21],36.6 µM (inactive)
same,GI50,[22],40.6 µM (inactive)
same,GI50,[23],> 100 µM (inactive)
same,GI50,[24],74.3 µM (inactive)
same,GI50,[55],62.2 µM (inactive)
same,GI50,[25],> 100 µM (inactive)
same,GI50,[26],40.2 µM (inactive)
same,GI50,[27],63.7 µM (inactive)
same,GI50,[28],84.3 µM (inactive)
same,GI50,[29],> 100 µM (inactive)
same,GI50,[30],> 100 µM (inactive)
same,GI50,[31],52.2 µM (inactive)
same,GI50,[32],> 100 µM (inactive)
same,GI50,[33],80.5 µM (inactive)
same,GI50,[34],75.5 µM (inactive)
same,GI50,[56],77.3 µM (inactive)
same,GI50,[35],> 100 µM (inactive)
same,GI50,[36],> 100 µM (inactive)
same,GI50,[37],64.3 µM (inactive)
same,GI50,[38],> 100 µM (inactive)
same,GI50,[57],> 100 µM (inactive)
same,GI50,[58],33.4 µM (inactive)
same,GI50,[59],> 100 µM (inactive)
same,GI50,[39],61 µM (inactive)
same,GI50,[40],67 µM (inactive)
same,GI50,[41],39.8 µM (inactive)
same,GI50,[42],86.5 µM (inactive)
same,GI50,[43],48.6 µM (inactive)
same,GI50,[44],80.5 µM (inactive)
same,GI50,[45],72.8 µM (inactive)
same,GI50,[46],22.2 µM (inactive)
same,GI50,[47],36.1 µM (inactive)
same,GI50,[48],89.9 µM (inactive)
same,GI50,[49],25.9 µM (inactive)
same,GI50,[50],47.8 µM (inactive)
same,GI50,[51],79.4 µM (inactive)
COC(=O)CCC12CCC(O1)c1ccccc12 (configuration not stated),GI50,[1],> 100 µM (inactive)
same,GI50,[2],> 100 µM (inactive)
same,GI50,[3],> 100 µM (inactive)
same,GI50,[4],> 100 µM (inactive)
same,GI50,[5],> 100 µM (inactive)
same,GI50,[6],> 100 µM (inactive)
same,GI50,[7],> 100 µM
same,GI50,[8],> 100 µM (inactive)
same,GI50,[54],> 100 µM (inactive)
same,GI50,[9],> 100 µM (inactive)
same,GI50,[10],> 100 µM (inactive)
same,GI50,[11],> 100 µM (inactive)
same,GI50,[12],> 100 µM (inactive)
same,GI50,[13],> 100 µM (inactive)
same,GI50,[14],> 100 µM (inactive)
same,GI50,[15],92.5 µM (inactive)
same,GI50,[16],> 100 µM (inactive)
same,GI50,[17],> 100 µM (inactive)
same,GI50,[19],> 100 µM (inactive)
same,GI50,[20],> 100 µM (inactive)
same,GI50,[21],> 100 µM (inactive)
same,GI50,[22],> 100 µM (inactive)
same,GI50,[23],> 100 µM (inactive)
same,GI50,[24],> 100 µM (inactive)
same,GI50,[55],> 100 µM (inactive)
same,GI50,[25],> 100 µM (inactive)
same,GI50,[26],> 100 µM (inactive)
same,GI50,[27],> 100 µM (inactive)
same,GI50,[29],> 100 µM (inactive)
same,GI50,[30],> 100 µM (inactive)
same,GI50,[31],> 100 µM (inactive)
same,GI50,[32],> 100 µM (inactive)
same,GI50,[34],> 100 µM (inactive)
same,GI50,[56],> 100 µM (inactive)
same,GI50,[35],> 100 µM (inactive)
same,GI50,[36],> 100 µM (inactive)
same,GI50,[37],> 100 µM (inactive)
same,GI50,[38],> 100 µM (inactive)
same,GI50,[57],> 100 µM (inactive)
same,GI50,[58],> 100 µM (inactive)
same,GI50,[59],> 100 µM (inactive)
same,GI50,[39],> 100 µM (inactive)
same,GI50,[40],> 100 µM (inactive)
same,GI50,[41],> 100 µM (inactive)
same,GI50,[42],> 100 µM (inactive)
same,GI50,[43],> 100 µM (inactive)
same,GI50,[44],> 100 µM (inactive)
same,GI50,[45],> 100 µM (inactive)
same,GI50,[46],> 100 µM (inactive)
same,GI50,[47],> 100 µM (inactive)
same,GI50,[48],> 100 µM (inactive)
same,GI50,[49],> 100 µM (inactive)
same,GI50,[50],> 100 µM (inactive)
same,GI50,[51],> 100 µM (inactive)
